Test results reported in patent US6593357B1, “Pyrazole compositions useful as inhibitors of ERK” (Vertex Pharmaceuticals Incorporated, priority 2000, dated 2003).
pIC50, pKi: −log10 of the molar value. Like-named read-outs stand apart in the source and are kept apart here.

Tests used:
Aurora2 = biological target: T1, Aurora2 (Homo sapiens, UniProt O14965); assay: Aurora inhibition, standard coupled enzyme assay; type: biochemical; details: 40 μM ATP, 30° C.; read-out: Aurora2 Inhibitory Activity (IC50 class)
T1 sequence (O14965 1-403): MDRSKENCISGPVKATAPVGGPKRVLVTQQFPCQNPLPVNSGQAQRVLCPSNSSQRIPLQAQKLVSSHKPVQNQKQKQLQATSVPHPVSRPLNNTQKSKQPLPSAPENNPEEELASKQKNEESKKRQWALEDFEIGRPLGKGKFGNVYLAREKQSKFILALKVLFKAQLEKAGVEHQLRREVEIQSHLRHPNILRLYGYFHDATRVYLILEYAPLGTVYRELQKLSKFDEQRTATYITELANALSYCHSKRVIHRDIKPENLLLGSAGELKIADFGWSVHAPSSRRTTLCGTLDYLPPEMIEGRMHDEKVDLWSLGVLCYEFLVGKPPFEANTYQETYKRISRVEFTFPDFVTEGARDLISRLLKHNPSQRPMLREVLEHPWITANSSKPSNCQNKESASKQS
Protocol: Compounds were screened in the following manner for their ability to inhibit Aurora using a standard coupled enzyme assay. To an assay stock buffer solution containing 0.1M HEPES 7.5, 10 mM MgCl2, 25 mM NaCl, 2.5 mM phosphoenolpyruvate, 300 μM NADH, 30 μg/mL pyruvate kinase, 10 μg/mL lactate dehydrogenase, 40 μM ATP, and 800 μM peptide (LRRASLG, American Peptide, Sunnyvale, Calif.) was added a 30 μM solution of the compound in DMSO and the resulting mixture incubated at 30° C. for 10 min. The reaction was initiated by the addition of 10 μL of 70 nM Aurora and 1 mM DTT. The rates of reaction were obtained by monitoring absorbance at 340 nm over a 5 minute read time at 30° C. using a BioRad Ultramark plate reader (Hercules, Calif.). The IC50 was determined from the rate data as a function of inhibitor concentration.
The compound numbers correspond to the compound numbers in Table 1.

ERK2 = ERK2 (Homo sapiens, UniProt P28482); assay: ERK2 inhibition, spectrophotometric coupled-enzyme assay; type: biochemical; details: activated ERK2 10 nM, 65 μM ATP, 30° C., pH 7.5
[1] = read-out: ERK2 Inhibitory Activity (Ki class)
[2] = ERK2 Inhibitory Activity (Ki class)

ERK2, sequence (P28482 whole entry): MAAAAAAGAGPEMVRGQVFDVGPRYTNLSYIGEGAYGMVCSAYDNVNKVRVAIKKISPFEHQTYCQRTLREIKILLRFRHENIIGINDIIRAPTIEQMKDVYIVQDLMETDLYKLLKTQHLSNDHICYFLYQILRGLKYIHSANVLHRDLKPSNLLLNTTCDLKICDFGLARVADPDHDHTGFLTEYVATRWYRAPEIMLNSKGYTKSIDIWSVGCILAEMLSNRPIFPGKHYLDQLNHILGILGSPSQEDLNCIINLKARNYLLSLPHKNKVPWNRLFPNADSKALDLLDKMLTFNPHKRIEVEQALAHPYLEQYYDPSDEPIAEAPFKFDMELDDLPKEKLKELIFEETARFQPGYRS

| pIC50 (Aurora2) | Compound | pKi (ERK2; [1]) | pKi (ERK2; [2]) |
| --- | --- | --- | --- |
| > 5.30 | O=C(NOCc1ccccc1)c1cc(-c2[nH]ncc2-c2cccc(Cl)c2)c[nH]1 [II-57] |  |  |
| > 5.30 | O=C(NOCc1ccccc1)c1cc(-c2[nH]ncc2-c2cccc(Cl)c2F)c[nH]1 [II-82] | > 6.00 |  |
| 5.00 to 5.30 | O=C(NOCc1ccccc1)c1cc(-c2[nH]ncc2-c2ccc(F)c(F)c2)c[nH]1 [II-85] | > 6.00 |  |
| > 5.30 | CCN(C)C(=O)c1cc(-c2n[nH]cc2-c2cccc(Cl)c2)c[nH]1 [II-93] |  |  |
| 5.00 to 5.30 | O=C(NOCc1ccccc1)c1cc(-c2[nH]ncc2-c2cccc(F)c2F)c[nH]1 [II-103] | > 6.00 |  |
| > 5.30 | O=C(NCc1ccncc1)c1cc(-c2[nH]ncc2-c2cccc(F)c2F)c[nH]1 [II-141] | 5.30 to 6.00 |  |
|  | CCOC(=O)c1cc(-c2[nH]ncc2-c2cccc(Cl)c2)c[nH]1 [II-151] | 5.30 to 6.00 |  |
|  | CNC(=O)c1cc(-c2[nH]ncc2-c2cccc(Br)c2)c[nH]1 [II-152] | 5.30 to 6.00 |  |
|  | O=C(NC1c2ccccc2CC1O)c1cc(-c2[nH]ncc2-c2cccc(Cl)c2)c[nH]1 (stereo not drawn) [II-155] |  | 5.30 to 6.00 |
|  | O=C(c1cc(-c2[nH]ncc2-c2cccc(Br)c2)c[nH]1)N(CCCO)Cc1ccncc1 [II-156] | 5.30 to 6.00 |  |
|  | CCOC(=O)c1cc(-c2[nH]ncc2-c2cccc(Br)c2)c[nH]1 [II-157] | 5.30 to 6.00 |  |
|  | CC(C)NC(=O)c1cc(-c2[nH]ncc2-c2cccc(C(=O)O)c2)c[nH]1 [II-160] | 5.30 to 6.00 |  |
|  | CC(C)ONC(=O)c1cc(-c2[nH]ncc2-c2cccc(Br)c2)c[nH]1 [II-161] | < 5.30 |  |
|  | CCOC(=O)c1cc(-c2[nH]ncc2-c2cccc(F)c2)c[nH]1 [II-162] | < 5.30 |  |
|  | CCOC(=O)c1cc(-c2[nH]ncc2-c2ccc(N)cc2)c[nH]1 [II-164] | < 5.30 |  |
|  | CCOC(=O)c1cc(-c2[nH]ncc2-c2ccc([N+](=O)[O-])cc2)c[nH]1 [II-165] | < 5.30 |  |
|  | CC1CCN(C(=O)c2cc(-c3[nH]ncc3-c3ccccc3)c[nH]2)CC1 [II-166] | < 5.30 |  |
| 5.00 to 5.30 | O=C(NCc1cccnc1)c1cc(-c2[nH]ncc2-c2cc(F)ccc2F)c[nH]1 [II-181] |  |  |
| < 5.00 | O=C(NCC1CCCO1)c1cc(-c2[nH]ncc2-c2cc(F)ccc2F)c[nH]1 (stereo not drawn) [II-188] |  |  |
| 5.00 to 5.30 | O=C(NCc1ccncc1)c1cc(-c2[nH]ncc2-c2ccc(Cl)cc2)c[nH]1 [II-211] |  |  |
| 5.00 to 5.30 | COc1ccc(-c2cn[nH]c2-c2c[nH]c(C(=O)NCc3ccncc3)c2)cc1OC [II-212] |  |  |
| 5.00 to 5.30 | O=C(NCc1ccncc1)c1cc(-c2[nH]ncc2-c2ccc3c(c2)OCO3)c[nH]1 [II-213] |  |  |
| 5.00 to 5.30 | O=C(NCc1cccnc1)c1cc(-c2[nH]ncc2-c2ccc(Cl)cc2)c[nH]1 [II-214] |  |  |
| 5.00 to 5.30 | COc1ccc(-c2cn[nH]c2-c2c[nH]c(C(=O)NCc3cccnc3)c2)cc1OC [II-215] |  |  |

| pIC50 (Aurora2) | Compound | pKi (ERK2; [1]) | pKi (ERK2; [2]) |
| --- | --- | --- | --- |
| 5.00 to 5.30 | O=C(NCc1cccnc1)c1cc(-c2[nH]ncc2-c2ccc3c(c2)OCO3)c[nH]1 [II-216] |  |  |
| 5.00 to 5.30 | COc1ccc(-c2cn[nH]c2-c2c[nH]c(C(=O)NCC3CCCO3)c2)cc1OC (stereo not drawn) [II-218] |  |  |
| > 5.30 | COc1ccc(-c2cn[nH]c2-c2c[nH]c(C(=O)N3CCOCC3)c2)cc1OC [II-228] |  |  |
| 5.00 to 5.30 | O=C(NCCc1cnc[nH]1)c1cc(-c2[nH]ncc2-c2ccc(Cl)cc2)c[nH]1 [II-252] |  |  |
| > 5.30 | O=C(NCCc1cnc[nH]1)c1cc(-c2[nH]ncc2-c2ccc(Cl)c(Cl)c2)c[nH]1 [II-254] |  |  |
| 5.00 to 5.30 | O=C(NCCc1cnc[nH]1)c1cc(-c2[nH]ncc2-c2cccc(Cl)c2F)c[nH]1 [II-255] |  |  |
| < 5.00 | CCN(C)C(=O)c1cc(-c2[nH]ncc2-c2ccc(OC)c(OC)c2)c[nH]1 [II-258] |  |  |
| 5.00 to 5.30 | COc1ccc(-c2cn[nH]c2-c2c[nH]c(C(=O)NCC3CCCN(C(=O)OC(C)(C)C)C3)c2)cc1OC (stereo not drawn) [II-259] |  |  |
| < 5.00 | COc1ccc(-c2cn[nH]c2-c2c[nH]c(C(=O)NOCc3ccccc3)c2)cc1OC [II-260] |  |  |
| 5.00 to 5.30 | O=C(NCCc1cnc[nH]1)c1cc(-c2[nH]ncc2-c2cc(Cl)cc(Cl)c2)c[nH]1 [II-266] |  |  |
|  | O=C(NCc1ccccc1)c1cc(-c2[nH]ncc2-c2cccc([N+](=O)[O-])c2)c[nH]1 [II-285] | 5.30 to 6.00 |  |
|  | CCN1CCCC1CNC(=O)c1cc(-c2n[nH]cc2-c2cccc(Cl)c2)c[nH]1 (stereo not drawn) [II-286] |  | < 5.30 |
|  | O=C(c1cc(-c2[nH]ncc2-c2cccc(Br)c2)c[nH]1)N(Cc1ccccc1)[C@H](CO)c1ccccc1 [II-288] | 5.30 to 6.00 |  |
|  | O=C(NCc1ccncc1)c1cc(-c2[nH]ncc2-c2cccc([N+](=O)[O-])c2)c[nH]1 [II-289] | < 5.30 |  |
|  | O=C(NC(COc1ccccc1)c1ccc2c(c1)OCCO2)c1cc(-c2[nH]ncc2-c2cccc(Br)c2)c[nH]1 (stereo not drawn) [II-290] | 5.30 to 6.00 |  |
|  | CCN(C)C(=O)c1cc(-c2[nH]ncc2-c2cccc(F)c2)c[nH]1 [II-291] | < 5.30 |  |
|  | CCN(C)C(=O)c1cc(-c2[nH]ncc2-c2cccc(OC)c2)c[nH]1 [II-292] | < 5.30 |  |
|  | O=C(N[C@@H](CO)Cc1ccc(O)cc1)c1cc(-c2[nH]ncc2-c2cccc(Br)c2)c[nH]1 [II-293] | < 5.30 |  |
|  | O=C(N[C@@H](CO)Cc1cnc[nH]1)c1cc(-c2[nH]ncc2-c2cccc(Br)c2)c[nH]1 [II-294] | < 5.30 |  |
|  | O=C(NC(CO)(CO)CO)c1cc(-c2[nH]ncc2-c2cccc(Br)c2)c[nH]1 [II-295] | < 5.30 |  |
|  | COc1ccc(C[C@H](CO)NC(=O)c2cc(-c3[nH]ncc3-c3cccc(Br)c3)c[nH]2)cc1OC [II-296] | < 5.30 |  |
|  | CN(C)CCNC(=O)c1cc(-c2[nH]ncc2-c2ccccc2)c[nH]1 [II-297] | < 5.30 |  |
|  | O=C(NCc1ccccc1)c1cc(-c2[nH]ncc2-c2cccc(Br)c2)c[nH]1 [II-299] | < 5.30 |  |

| Compound | pIC50 (Aurora2) | pKi (ERK2; [1]) | pKi (ERK2; [2]) |
| --- | --- | --- | --- |
| O=C(NOCc1ccccc1)c1cc(-c2[nH]ncc2-c2cc(Cl)cc(Cl)c2)c[nH]1 [II-51] | 5.00 to 5.30 | > 6.00 |  |
| O=C(NOCc1ccccc1)c1cc(-c2[nH]ncc2-c2ccc(Cl)c(Cl)c2)c[nH]1 [II-54] | 5.00 to 5.30 | > 6.00 |  |
| O=C(NCc1ccncc1)c1cc(-c2[nH]ncc2-c2ccc(Cl)c(Cl)c2)c[nH]1 [II-61] | > 5.30 | > 6.00 |  |
| CCN(C)C(=O)c1cc(-c2[nH]ncc2-c2ccc(Cl)c(Cl)c2)c[nH]1 [II-64] | > 5.30 | > 6.00 |  |
| CCN(C)C(=O)c1cc(-c2[nH]ncc2-c2cc(Cl)cc(Cl)c2)c[nH]1 [II-66] | 5.00 to 5.30 | > 6.00 |  |
| O=C(NCc1ccncc1)c1cc(-c2[nH]ncc2-c2ccc(F)c(Cl)c2)c[nH]1 [II-70] | 5.00 to 5.30 | > 6.00 |  |
| O=C(NC(CO)c1ccccc1)c1cc(-c2[nH]ncc2-c2cccc(Br)c2)c[nH]1 (stereo not drawn) [II-72] | 5.00 to 5.30 | > 6.00 |  |
| O=C(NCc1cccnc1)c1cc(-c2[nH]ncc2-c2cc(Cl)cc(Cl)c2)c[nH]1 [II-76] | > 5.30 | > 6.00 |  |
| O=C(NOCc1ccccc1)c1cc(-c2[nH]ncc2-c2ccc(F)c(Cl)c2)c[nH]1 [II-77] | > 5.30 | > 6.00 |  |
| CCN(C)C(=O)c1cc(-c2[nH]ncc2-c2cccc(Cl)c2F)c[nH]1 [II-81] | > 5.30 | > 6.00 |  |
| O=C(NCc1ccncc1)c1cc(-c2[nH]ncc2-c2ccc(F)c(F)c2)c[nH]1 [II-88] | 5.00 to 5.30 | > 6.00 |  |
| O=C(NCc1ccncc1)c1cc(-c2[nH]ncc2-c2cc(F)ccc2F)c[nH]1 [II-98] | 5.00 to 5.30 | > 6.00 |  |
| O=C(NOCc1ccccc1)c1cc(-c2[nH]ncc2-c2ccc(Cl)cc2)c[nH]1 [II-99] | > 5.30 | > 6.00 |  |
| O=C(NCc1cccnc1)c1cc(-c2[nH]ncc2-c2ccc(F)c(Cl)c2)c[nH]1 [II-101] | > 5.30 | > 6.00 |  |
| O=C(NCC1CCCO1)c1cc(-c2[nH]ncc2-c2cccc(Cl)c2F)c[nH]1 (stereo not drawn) [II-106] | 5.00 to 5.30 | > 6.00 |  |
| CCN(C)C(=O)c1cc(-c2[nH]ncc2-c2ccc(F)c(Cl)c2)c[nH]1 [II-108] | 5.00 to 5.30 | > 6.00 |  |
| O=C(c1cc(-c2n[nH]cc2-c2cc(Cl)cc(Cl)c2)c[nH]1)N1CCOCC1 [II-112] | > 5.30 | > 6.00 |  |
| O=C(NOCc1ccccc1)c1cc(-c2[nH]ncc2-c2cc(F)ccc2F)c[nH]1 [II-113] | > 5.30 | > 6.00 |  |
| O=C(NCc1cccnc1)c1cc(-c2[nH]ncc2-c2cccc(Cl)c2F)c[nH]1 [II-114] | > 5.30 | > 6.00 |  |
| O=C(NCc1ccncc1)c1cc(-c2[nH]ncc2-c2cccc(Cl)c2F)c[nH]1 [II-115] | > 5.30 | > 6.00 |  |
| O=C(NCCc1cnc[nH]1)c1cc(-c2[nH]ncc2-c2cccc(Cl)c2)c[nH]1 [II-142] | > 5.30 | 5.30 to 6.00 |  |
